Assay results reported in paper PMC11025096, “Universal Glycosyltransferase Continuous Assay for Uniform Kinetics and Inhibition Database Development and Mechanistic Studies Illustrated on ST3GAL1, C1GALT1, and FUT1” (ACS Omega, 2024).
pIC50: −log10 of the molar value. Each block holds one compound with its values, some of them ahead of it.

How the values were obtained:
FUT1 [1] = target: T1, FUT1 (Homo sapiens, UniProt P19526); assay: Michaelis-Menten kinetics, UGC continuous coupled assay (NDK/PK/LDH); format: biochemical
T1 construct: pGEn2 construct expressed in HEK293F; tag removed with TEV protease
T1 sequence (P19526 1-365): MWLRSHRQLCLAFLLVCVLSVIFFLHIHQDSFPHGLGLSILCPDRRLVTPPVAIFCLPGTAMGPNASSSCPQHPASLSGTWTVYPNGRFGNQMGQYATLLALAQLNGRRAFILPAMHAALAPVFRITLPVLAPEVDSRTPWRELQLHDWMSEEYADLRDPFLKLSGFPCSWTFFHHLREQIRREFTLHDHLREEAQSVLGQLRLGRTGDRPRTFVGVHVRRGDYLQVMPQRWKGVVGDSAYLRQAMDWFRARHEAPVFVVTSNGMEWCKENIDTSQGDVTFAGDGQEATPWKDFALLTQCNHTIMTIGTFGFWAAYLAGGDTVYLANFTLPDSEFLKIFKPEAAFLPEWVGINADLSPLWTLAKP

ST3GAL1 [2] = target: T2, ST3GAL1 (Homo sapiens, UniProt Q11201); assay: UGC continuous coupled NADH fluorescence assay, […] min enzyme-inhibitor preincubation, dose response; format: biochemical
T2 construct: pGEn2 construct expressed in HEK293F; tag removed with TEV protease
T2 sequence (Q11201 1-340): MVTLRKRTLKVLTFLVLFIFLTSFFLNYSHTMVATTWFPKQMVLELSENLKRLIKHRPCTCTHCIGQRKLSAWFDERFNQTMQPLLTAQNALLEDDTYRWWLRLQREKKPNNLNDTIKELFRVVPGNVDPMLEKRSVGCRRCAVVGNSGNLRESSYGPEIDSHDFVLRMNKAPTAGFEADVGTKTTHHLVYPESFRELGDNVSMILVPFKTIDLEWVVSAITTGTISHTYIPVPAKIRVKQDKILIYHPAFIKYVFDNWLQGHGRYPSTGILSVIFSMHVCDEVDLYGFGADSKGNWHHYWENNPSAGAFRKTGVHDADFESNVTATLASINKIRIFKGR

FUT1 [3] = target: T1, FUT1; assay: as above; format: biochemical
C1GALT1 = target: T3, C1GALT1 (Homo sapiens, UniProt Q9NS00); assay: biochemical; set-up: UGC coupled continuous assay, NADH fluorescence depletion, 30 min enzyme-inhibitor preincubation, 37 °C; conditions: acceptor 2x Km, donor 0.5x Km; rate at 5 min; extrapolated; read-out: Log IC50 (M) C1GALT1 (converted)
T3 construct: pGEn2 construct expressed in HEK293F (coexpressed with chaperone C1GALT1C1); tag removed with TEV protease
T3 sequence (Q9NS00 whole entry): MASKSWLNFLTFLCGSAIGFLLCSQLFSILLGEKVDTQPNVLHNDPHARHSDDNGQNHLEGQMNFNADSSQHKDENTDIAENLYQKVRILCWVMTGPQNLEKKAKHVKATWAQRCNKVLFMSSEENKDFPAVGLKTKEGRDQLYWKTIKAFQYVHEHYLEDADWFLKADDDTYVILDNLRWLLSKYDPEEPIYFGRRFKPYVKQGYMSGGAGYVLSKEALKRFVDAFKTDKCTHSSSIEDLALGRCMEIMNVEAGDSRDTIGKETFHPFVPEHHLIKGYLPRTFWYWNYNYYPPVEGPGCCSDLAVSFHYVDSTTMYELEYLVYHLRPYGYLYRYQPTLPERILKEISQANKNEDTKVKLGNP
Procedure: (§1) Soyasaponin 1 stock solution was prepared at 1.25 mM in 2% (v/v) Triton X-100 and 10% (v/v) DMSO. Inhibition assays were performed following a method similar to that used in the kinetics study. The master mixtures included all of the components except for the inhibitor and the enzyme. A 2-fold serial dilution from the inhibitor’s stock solution was prepared in a blank solution containing 2 and 10% (v/v) Triton X-100 and DMSO, respectively. The enzyme and the inhibitor were mixed, distributed to the wells, and preincubated for 30 min at 37 °C. A 10 min incubation period was also carried out at 37 °C for the master mixture, and the reaction was initiated by adding the master mixture to the wells. […] The effect of the activity percentage was calculated at each concentration of the inhibitor as follows [drawing 1] where SI, S100, S0 are the absolute values of the slopes from the progress curves of the reaction with inhibitor, […] respectively. IC50 and pIC50 (−log IC50 in molar concentration) values were calculated as depicted in Tables S3 and S4 (Supporting Information). Rates for the comparative dose response were calculated for each enzyme at the last time point where the uninhibited reaction maintained its linearity. […] Time and dose dependent inhibition was measured at varying concentrations of Soyasaponin 1. […]

ST3GAL1 [4] = target: T2, ST3GAL1; assay: biochemical; set-up: UGC coupled continuous assay, NADH fluorescence depletion, 30 min enzyme-inhibitor preincubation, 37 °C; conditions: acceptor and donor at Km; 20 min; read-out: Log IC50 (M) 20 Minutes (converted)
Procedure: as §1

CMK (cytidylate kinase) = target: T4, CMK (cytidylate kinase) (Escherichia coli, UniProt P0A6I0); assay: coupled PK/LDH NADH fluorescence progress curves over CMP serial dilution; format: biochemical
T4 sequence (P0A6I0 1-227): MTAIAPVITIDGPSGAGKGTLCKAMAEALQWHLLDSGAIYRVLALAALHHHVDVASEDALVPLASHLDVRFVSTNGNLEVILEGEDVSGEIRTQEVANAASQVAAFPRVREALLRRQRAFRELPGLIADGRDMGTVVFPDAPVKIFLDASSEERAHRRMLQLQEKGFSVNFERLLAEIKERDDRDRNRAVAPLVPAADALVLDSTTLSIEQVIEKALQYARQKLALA

ST3GAL1 [5] = target: T2, ST3GAL1; assay: Michaelis-Menten kinetics, UGC continuous coupled assay (CMK/NDK/PK/LDH); format: biochemical
FUT1 [6] = target: T1, FUT1; assay: donor at fixed saturating concentration in UGC continuous coupled assay (NDK/PK/LDH); format: biochemical

Michaelis-Menten kinetics, UGC continuous coupled assay (NDK/PK/LDH) (FUT1 [1]): 357 min^–1 (kcat)
SMILES: CC(=O)N[C@H]1C(O)O[C@H](CO)[C@@H](O)[C@@H]1O[C@@H]1O[C@H](CO)[C@H](O)[C@H](O)[C@H]1O (stereo partly drawn) [lacto-N-biose]

pIC50 (ST3GAL1 [2]): 4.51
pIC50 (FUT1 [3]): 4.28
IC50 (C1GALT1): 0.000367 M
IC50 (ST3GAL1 [4]): 5.87e-05 M
SMILES: C[C@@H]1O[C@@H](O[C@H]2[C@H](O[C@H]3[C@H](O[C@H]4CC[C@@]5(C)[C@@H](CC[C@]6(C)[C@@H]5CC=C5[C@@H]7CC(C)(C)C[C@@H](O)[C@]7(C)CC[C@]56C)[C@@]4(C)CO)O[C@H](C(=O)O)[C@@H](O)[C@@H]3O)O[C@H](CO)[C@H](O)[C@@H]2O)[C@H](O)[C@H](O)[C@H]1O [Soyasaponin1]

SMILES: Nc1ccn([C@@H]2O[C@H](COP(=O)(O)O)[C@@H](O)[C@H]2O)c(=O)n1 [CMP]
coupled PK/LDH NADH fluorescence progress curves over CMP serial dilution (CMK (cytidylate kinase)): the initial instant phosphorylation of CMP to CDP via CMK followed by a slower phosphorylation of CDP via PK

Michaelis-Menten kinetics, UGC continuous coupled assay (NDK/PK/LDH) (FUT1 [1]): 152 min^–1 (kcat)
SMILES: CC(=O)N[C@H]1[C@@H](OCc2ccccc2)O[C@H](CO)[C@H](O)[C@@H]1O[C@@H]1O[C@H](CO)[C@H](O)[C@H](O)[C@H]1O [T-Bn]

Michaelis-Menten kinetics, UGC continuous coupled assay (CMK/NDK/PK/LDH) (ST3GAL1 [5]): 195 min^–1 (kcat)
SMILES: CC(=O)N[C@H]1C(O)O[C@H](CO)[C@H](O)[C@@H]1O[C@@H]1O[C@H](CO)[C@H](O)[C@H](O)[C@H]1O (stereo partly drawn) [galacto-N-biose]

SMILES: C[C@@H]1O[C@H](OP(=O)(O)OP(=O)(O)OC[C@H]2O[C@@H](n3cnc4c(=O)[nH]c(N)nc43)[C@H](O)[C@@H]2O)[C@@H](O)[C@H](O)[C@@H]1O [GDP-Fuc]
donor at fixed saturating concentration in UGC continuous coupled assay (NDK/PK/) (FUT1 [6]): Kinetics parameters for FUT1 were calculated with a saturation concentration of the donor GDP-Fuc and variable concentrations of the acceptors
